The data set is described as follows: in vitro. The following applies: human, hela cells, % viability.

80 molecules from paper PMC12040169 (PLOS Biology, 2025) can be followed below.

As for `O=S(=O)(c1ccc(Cl)c(Cl)c1)N1CCOCC1` [CBK043794], the viability at 28.5 h, 10 µM stood at 90.7%.

Take `CC(C)Oc1ccc(C(=O)C2=C(O)C(=O)N(CCN(C)C)C2c2ccncc2)cc1` (centres unmarked) [CBK264907]: the viability at 28.5 h, 10 µM amounted to 90.3%.

For the molecule `CC(=O)c1ccc(OCc2nc(N)nc(Nc3ccccc3)n2)cc1` [CBK297155], the viability at 28.5 h, 10 µM stood at 83.1%.

As to `CC(C)Cc1nsc(NC2CCCN(c3ccn(C)n3)C2=O)n1` (centres unmarked) [CBK304696], the viability at 28.5 h, 10 µM worked out at 91.2%.

`O=C(O)c1ccc(NS(=O)(=O)c2ccc(C(F)(F)F)cc2[N+](=O)[O-])cc1` [CBK034063]: the viability at 28.5 h, 10 µM came out at 113%.

On to `CCC1C(=O)NCCN1C(=O)c1ccc2c(c1)ncn2C` (centres unmarked) [CBK281709], for which the viability at 28.5 h, 10 µM is 82.4%.

On to `CCNC(=O)N1C[C@@H]2OCC(=O)N(Cc3cccnc3)[C@@H]2C1` [CBK289682], for which the viability at 28.5 h, 10 µM was 109%.

Regarding `CCc1cc(Br)ccc1S(=O)(=O)NCc1cccc(F)c1` [CBK045114], the viability at 28.5 h, 10 µM was found to be 89.1%.

As to `Cc1ccn(CCNC(=O)C2CCC(=O)N(CCc3ccccn3)C2)n1` (centres unmarked) [CBK306998], the viability at 28.5 h, 10 µM was 93.5%.

With `Cc1ccc(NS(=O)(=O)N(C)C)c(C)c1` [CBK005246], the viability at 28.5 h, 10 µM came out at 122%.

For the molecule `COc1ccccc1CN(Cc1cccnc1)C(=O)c1cnc(C)cn1` [CBK306972], the viability at 28.5 h, 10 µM is 95.1%.

On to `COC(=O)c1c(NC(=O)C(=O)NCc2ccco2)sc2c1CCCC2` [CBK269269], for which the viability at 28.5 h, 10 µM came out at 87.5%.

`N#C/C(=C(/O)c1ccc(-c2ccc([N+](=O)[O-])cc2Cl)o1)c1nc(-c2ccc(F)cc2)cs1` [CBK266742]: the viability at 28.5 h, 10 µM stood at 91%.

With `NC(=O)c1c(NC(=O)CSc2ccc(Cl)cc2)sc2c1CCCC2` [CBK263101], the viability at 28.5 h, 10 µM amounted to 77.7%.

Consider `O=C1CN(C(=O)CCn2c(C(F)(F)F)cc3cccnc32)CCN1` [CBK284888], for which the viability at 28.5 h, 10 µM was 92.8%.

Turning to `O=C(CN1CCOCC1)Nc1ccc(Cl)cc1C(=O)c1ccccc1` [CBK086450], the viability at 28.5 h, 10 µM came to 95.9%.

Turning to `O=C1CSC2(C(=O)Nc3ccccc32)N1c1ccc2ccccc2c1` (centres unmarked) [CBK093461], the viability at 28.5 h, 10 µM is 106%.

As to `O=C(Cn1ccnc1)Nc1nc(-c2ccccc2F)cs1` [CBK281409], the viability at 28.5 h, 10 µM amounted to 104%.

On to `COc1cc(/C=N/CC/N=C/c2ccc(O)c(OC)c2)ccc1O` [CBK262015], for which the viability at 28.5 h, 10 µM stood at 106%.

In the case of `Brc1ccc(/C=N\c2ccc3c(c2)ncn3CCn2cnc3cc(/N=C/c4ccc(Br)cc4)ccc32)cc1` [CBK262285], the viability at 28.5 h, 10 µM came out at 83.9%.

As for `COc1cc2c(cc1OC)C1(CCN(CCCC(F)(F)F)CC1)NC(=O)C2` [CBK039859], the viability at 28.5 h, 10 µM was 97.9%.

For `O=S(=O)(NCCSc1ccccn1)c1ccc(Br)cc1` [CBK264001], the viability at 28.5 h, 10 µM is 99.3%.

As for `CCOC(=O)N1CCC2(CC1)Oc1ccc(Br)cc1O2` [CBK089365], for the setting “bulk resorufin, single well”, the viability at 28.5 h, 10 µM stood at 80.9%.

With `O=c1cc(N2CCCCC2)cnn1Cc1nccn1C1CC1` [CBK307484], the viability at 28.5 h, 10 µM was 89.6%.

For `CC(C)CCNC(=O)N1CCN(c2ccccc2)CC1` [CBK155203], the viability at 28.5 h, 10 µM was 101%.

For the molecule `O=C(CN1C(=O)c2ccc([N+](=O)[O-])cc2C1=O)Nc1ccc(O)cc1C(=O)O` [CBK263456], the viability at 28.5 h, 10 µM came out at 95.5%.

For the molecule `CC(C)(CO)CNc1nc(-c2cc(C(F)(F)F)cc(C(F)(F)F)c2)cnc1N` [CBK063490], the viability at 28.5 h, 10 µM amounted to 101%.

With `O=C(O)c1cccc(-c2cccc(N3CCN(c4ccccn4)CC3)n2)c1` [CBK036888], the viability at 28.5 h, 10 µM stood at 92.7%.

For `Cc1cnn(CC(=O)NC(C)c2cc3cc(Cl)ccc3o2)c1` (centres unmarked) [CBK281447], the viability at 28.5 h, 10 µM turned out to be 90.2%.

Turning to `COc1ccc(-n2c(SC(CN3CCCCC3)CN3CCCC3=O)nc3ccccc3c2=O)cc1` (centres unmarked) [CBK264891C], the viability at 28.5 h, 10 µM came out at 87.8%.

As to `O=C(NCCN1CCCC1)c1ccc(Nc2cncc(-c3ccc(O)cc3)n2)c(Cl)c1` [CBK122666], the viability at 28.5 h, 10 µM is 85.4%.

Regarding `COc1ccc(-c2n[nH]c(=S)n2CC(=O)Nc2ccc(NC(=O)CC(C)C)cc2)cc1` [CBK295342], the viability at 28.5 h, 10 µM turned out to be 100%.

On to `O=C1c2ccccc2NC(c2cnc3ccccc3n2)N1O` (centres unmarked) [CBK288357], for which the viability at 28.5 h, 10 µM is 84.7%.

For the molecule `CS(=O)(=O)Nc1ccc2cc(-c3ccccc3)cnc2n1` [CBK061899], the viability at 28.5 h, 10 µM turned out to be 91.2%.

As for `Cc1ccc(C(=O)NC2CCCC2)cn1` [CBK200117], the viability at 28.5 h, 10 µM worked out at 91.6%.

As to `CC(=O)Nc1ccc(-c2ccc(COC3CCN(C(=O)c4ccc(F)cc4F)CC3)cc2)cc1` [CBK149216], the viability at 28.5 h, 10 µM worked out at 101%.

Take `c1cncc(-c2cncc(NCCc3c[nH]c4ccccc34)n2)c1` [CBK065186]: the viability at 28.5 h, 10 µM stood at 89.7%.

As for `COc1ccc(-c2cn(-c3ccc4c(c3)CCO4)nn2)cc1` [CBK113027], the viability at 28.5 h, 10 µM turned out to be 88.5%.

As for `COCCn1c(SC(C)C(=O)N2CCNC2=O)nc2ccccc21` (centres unmarked) [CBK305832], the viability at 28.5 h, 10 µM was determined as 85.7%.

With `O=c1cc(CO)oc(CN2CCSCC2)c1O` [CBK288404], the viability at 28.5 h, 10 µM was found to be 89%.

For `O=c1c(Cc2ccccc2)c(O)c2ccccc2n1Cc1ccccc1` [CBK219368], the viability at 28.5 h, 10 µM was found to be 85.8%.

Turning to `Cc1cnc2c(C(=O)N3CCCC3c3ccccn3)cnn2c1` (centres unmarked) [CBK304612], the viability at 28.5 h, 10 µM came out at 91.8%.

On to `Fc1ccc2c(ccn2CCCN2CCN(c3ccncc3)CC2)c1` [CBK043645G], for which the viability at 28.5 h, 10 µM is 89.4%.

Turning to `O=C(O)COc1ccccc1/C=C/c1cc(C(F)(F)F)[nH]c(=O)n1` [CBK287017], the viability at 28.5 h, 10 µM is 103%.

As to `Cc1ccccc1Nc1nc(N)nc(CN2CCCC2)n1` [CBK306152], the viability at 28.5 h, 10 µM came out at 102%.

Regarding `CCn1c(N2CCC(C(=O)NC(C)C)CC2)nc2ccccc21` [CBK283982], the viability at 28.5 h, 10 µM is 83.8%.

On to `CC(=O)N1CCN(c2cncc(-c3ccc(O)cc3)n2)CC1` [CBK126948T], for which the viability at 28.5 h, 10 µM is 88.9%.

For the molecule `Nc1ccc(-c2ccc3c(c2)OCCCO3)c2ccccc12` [CBK084325], the viability at 28.5 h, 10 µM was found to be 87.9%.

For the molecule `Cc1ccc(C(=O)NNCc2ccccc2)c(NCc2cccnc2)n1` [CBK076369], the viability at 28.5 h, 10 µM was found to be 88.6%.

For `CCOC(=O)CNC(=S)N[C@H]1CC[C@@]2(c3cccnc3)CCN(Cc3ccccc3)[C@H]2C1` [CBK028453], the viability at 28.5 h, 10 µM came out at 115%.

With `CC(C)Nc1cc(Sc2cccc(C(=O)O)c2)ncn1` [CBK093583], the viability at 28.5 h, 10 µM is 117%.

Regarding `CN(C)c1ccc(CN(CCO)CCO)cc1` [CBK261921], the viability at 28.5 h, 10 µM turned out to be 88.3%.

Regarding `C1=C(c2ccccc2)CCNC1` [CBK012268C], where the note is “bulk resorufin, single well”, the viability at 28.5 h, 10 µM came to 104%.

As for `Cc1cc(C)n(CCC(=O)N2C[C@@H]3CCCCN(CC4CC4)[C@@H]3C2)n1` [CBK285505], the viability at 28.5 h, 10 µM is 102%.

For `CCn1c(N2CCC(C(=O)NC3CC3)CC2)nc2ccccc21` [CBK283922], the viability at 28.5 h, 10 µM worked out at 92.7%.

Regarding `COc1ccccc1-c1nccnc1OCCc1c[nH]c2ccccc12` [CBK106807], the viability at 28.5 h, 10 µM turned out to be 87.7%.

In the case of `Cc1cc(C)c(C)c(S(=O)(=O)NCCCC(=O)O)c1C` [CBK268898], the viability at 28.5 h, 10 µM is 83.8%.

Turning to `Cc1cc(COc2cc(N3CCCN(Cc4ccc5c(c4)OCO5)CC3)ncn2)no1` [CBK083335T], the viability at 28.5 h, 10 µM came out at 95.7%.

For `CC(=O)Nc1cccc(C(=O)N(Cc2ccccc2)Cc2ccccc2)c1` [CBK269295], the viability at 28.5 h, 10 µM came to 91.6%.

`Cc1cccc(NC(S)=NCc2ccccn2)c1` [CBK264174]: the viability at 28.5 h, 10 µM was 104%.

In the case of `COc1ccc(C2(NC(=O)c3cnn(C)c3C)CCCCC2)cc1` [CBK283731], the viability at 28.5 h, 10 µM was determined as 84.8%.

Turning to `COc1ccc2[nH]c(C(=O)O)c(CCNC(C)=O)c2c1` [CBK260943N], the viability at 28.5 h, 10 µM came to 113%.

As to `O=C(CSCc1nc(O)c2c3c(sc2n1)CCCC3)Nc1ccc(F)cc1` [CBK265568], the viability at 28.5 h, 10 µM was 106%.

For the molecule `COc1ccc(C2(O)CCN(CC(O)c3ccc(C(C)(C)C)cc3)CC2)cc1` (centres unmarked) [CBK286333], the viability at 28.5 h, 10 µM was found to be 90.6%.

Take `CCc1nc2ccc(C(=O)N3CCCCC3)cn2c1N(C)CCC(C)C` [CBK146065]: the viability at 28.5 h, 10 µM came out at 96.3%.

For the molecule `CN(C)CCOC(=O)c1ccc2[nH]c3c(c2c1)CSCC3` [CBK009731C], the viability at 28.5 h, 10 µM was 95.8%.

In the case of `Cc1nc2c(c(=O)[nH]1)CC[C@@H]1CN(C(=O)c3cc(F)cc(F)c3)C[C@H]21` [CBK284418], the viability at 28.5 h, 10 µM came to 101%.

`O=C(c1ccc(Cl)cc1)c1ccc(OCC(=O)N2CCN(C(=O)c3ccco3)CC2)cc1` [CBK295658]: the viability at 28.5 h, 10 µM stood at 89.2%.

Regarding `Cc1cnn(C2CCCN(C(=O)CC3OCCc4sccc43)C2)c1` (centres unmarked) [CBK305329], the viability at 28.5 h, 10 µM amounted to 84.6%.

In the case of `O=C(CCCC1CCNCC1)Nc1nnc(C2CC2)s1` [CBK169224], the viability at 28.5 h, 10 µM came to 97.1%.

Turning to `Cc1cccc(-c2csc3c(=O)[nH]c(N4CCC(C(=O)NCCN(C)C)CC4)nc23)c1` [CBK215633], the viability at 28.5 h, 10 µM is 95.8%.

Regarding `O=[N+]([O-])c1ccc(CN2CCC(Oc3cncc(OCc4cccnc4)n3)C2)cc1` (centres unmarked) [CBK084456], the viability at 28.5 h, 10 µM turned out to be 91.6%.

For `O=C(O)CCC(NC(=O)c1ccc(Cl)cc1)C(=O)O` (centres unmarked) [CBK263597], the viability at 28.5 h, 10 µM was determined as 94.2%.

On to `Fc1ccc(OCc2nn3cnnc3s2)cc1` [CBK287288], for which the viability at 28.5 h, 10 µM is 102%.

With `CCCc1cc(C(=O)OC)c(NC(=O)c2c(C)noc2C)s1` [CBK058088], the viability at 28.5 h, 10 µM was determined as 92.5%.

With `CC[C@H]1CN(C(=O)c2cccnc2)CC[C@H]1CC(=O)NCc1ccc2c(c1)OCO2` [CBK288771], the viability at 28.5 h, 10 µM is 87.7%.

Turning to `COC1CCN(S(=O)(=O)c2cc(-n3cccn3)ccc2C)C1` (centres unmarked) [CBK306757], the viability at 28.5 h, 10 µM worked out at 92.8%.

As to `O=C(Oc1ccc(/C=N/Nc2nc(N3CCOCC3)nc(N3CCOCC3)n2)cc1)c1ccccc1` [CBK262064], the viability at 28.5 h, 10 µM came to 107%.

Turning to `Nc1ncc(-c2ccoc2)nc1N1CCN(CCO)CC1` [CBK063428], the viability at 28.5 h, 10 µM came to 98.8%.

Take `CCCC(=O)NCc1ccc(-c2cc(CN(C)C)n(C)n2)cc1` [CBK282007]: the viability at 28.5 h, 10 µM turned out to be 98.4%.

For orientation: viability means a read-out of living cells in per cent, often relative to untreated cells.
